According to patent US8410153B2, “Naphthalene isoxazoline invertebrate pest control agents” (E.I. du Pont de Nemours and Company, priority 2007, dated 2013):

Key:
Format in all cases: in vivo
[1] = system: fall armyworm (Spodoptera frugiperda); experiment: Test B: control of fall armyworm on corn (maize) plant, foliar spray; settings: sprayed at 50 ppm
Protocol: (§1) Test compounds were formulated using a solution containing 10% acetone, 90% water and 300 ppm X-77™ Spreader Lo-Foam Formula non-ionic surfactant containing alkylarylpolyoxyethylene, free fatty acids, glycols and isopropanol (Loveland Industries, Inc. Greeley, Colo., USA). The formulated compounds were applied in 1 mL of liquid through a SUJ2 atomizer nozzle with ⅛ JJ custom body (Spraying Systems Co. Wheaton, Ill., USA) positioned 1.27 cm (0.5 inches) above the top of each test unit. All experimental compounds in these tests were sprayed at 50 ppm, and the test was replicated three times. After spraying of the formulated test compound, each test unit was allowed to dry for 1 h and then a black, screened cap was placed on top. The test units were held for 6 days in a growth chamber at 25° C. and 70% relative humidity. Plant feeding damage was then visually assessed based on foliage consumed, and a pest mortality rating was also counted and calculated for each test unit.
For evaluating control of fall armyworm (Spodoptera frugiperda) the test unit consisted of a small open container with a 4-5-day-old corn (maize) plant inside. This was pre-infested (using a core sampler) with 10-15 1-day-old larvae on a piece of insect diet. Test compounds were formulated and sprayed at 50 ppm as described for Test A and replicated three times. After spraying, the test units were maintained in a growth chamber and then the control efficacy was rated for each test unit as described for Test A.

[2] = system: diamondback moth (Plutella xylostella); experiment: Test A: control of diamondback moth on radish plant, foliar spray; settings: sprayed at 50 ppm, held 6 days
Text: For evaluating control of diamondback moth (Plutella xylostella) the test unit consisted of a small open container with a 12-14-day-old radish plant inside. This was pre-infested with about 50 neonate larvae that were dispensed into the test unit via corncob grits using a bazooka inoculator. The larvae moved onto the test plant after being dispensed into the test unit.
as §1

[3] = system: western flower thrips (Frankliniella occidentalis); experiment: Test E: control of western flower thrips on Soleil bean plant, contact and/or systemic; settings: held 6 days
Protocol: as §1
For evaluating control of the western flower thrips (Frankliniella occidentalis) through contact and/or systemic means, the test unit consisted of a small open container with a 5-7-day-old Soleil Bean plant inside. Test compounds were formulated and sprayed as described for Test A. All experimental compounds in these tests were sprayed at 250 or 50 ppm as noted, and the test was replicated three times. After spraying, the test units were allowed to dry for 1 h, 22-27 adult thrips were added to each unit and then a black, screened cap was placed on top. The test units were held for 6 days at 25° C. and 45-55% relative humidity. A mortality rating was assessed along with a plant damage rating for each test unit.

Measured: levels of control efficacy (20% or less feeding damage or 80% or more mortality)

CC(NC(=O)c1ccc(C2=NOC(c3cc(Cl)cc(Cl)c3)(C(F)(F)F)C2)c2ccccc12)C(=O)NCC(F)(F)F (mixture of isomers) [Compound 16]
very good to excellent: [1] | [2] | [3]; sprayed at 50 ppm | [3]; sprayed at 250 ppm

CSCC(C)NC(=O)c1ccc(C2=NOC(c3cc(Cl)cc(Cl)c3)(C(F)(F)F)C2)c2ccccc12 (mixture of isomers) [Compound 29]
very good to excellent: [1] | [2] | [3]; sprayed at 50 ppm | [3]; sprayed at 250 ppm

CC(CO)NC(=O)c1ccc(C2=NOC(c3cc(Cl)cc(Cl)c3)(C(F)(F)F)C2)c2ccccc12 (mixture of isomers) [Compound 31]
very good to excellent: [1] | [2] | [3]; sprayed at 50 ppm | [3]; sprayed at 250 ppm

CC(C)NC(=O)C(C)NC(=O)c1ccc(C2=NOC(c3cc(Cl)cc(Cl)c3)(C(F)(F)F)C2)c2ccccc12 (mixture of isomers) [Compound 33]
very good to excellent: [1] | [2] | [3]; sprayed at 50 ppm | [3]; sprayed at 250 ppm

CC(O)CNC(=O)c1ccc(C2=NOC(c3cccc(C(F)(F)F)c3)(C(F)(F)F)C2)c2ccccc12 (mixture of isomers) [Compound 36]
very good to excellent: [1] | [2] | [3]; sprayed at 250 ppm

CC(CO)NC(=O)c1ccc(C2=NOC(c3cccc(C(F)(F)F)c3)(C(F)(F)F)C2)c2ccccc12 (mixture of isomers) [Compound 41]
very good to excellent: [1] | [2] | [3]; sprayed at 50 ppm | [3]; sprayed at 250 ppm

COCC(C)NC(=O)c1ccc(C2=NOC(c3cccc(C(F)(F)F)c3)(C(F)(F)F)C2)c2ccccc12 (mixture of isomers) [Compound 47]
very good to excellent: [1] | [2] | [3]; sprayed at 50 ppm | [3]; sprayed at 250 ppm

CSCC(C)NC(=O)c1ccc(C2=NOC(c3cc(C(F)(F)F)cc(C(F)(F)F)c3)(C(F)(F)F)C2)c2ccccc12 (mixture of isomers) [Compound 59]
very good to excellent: [1] | [2] | [3]; sprayed at 50 ppm | [3]; sprayed at 250 ppm

CSCC(C)NC(=O)c1ccc(C2=NOC(c3cc(C(F)(F)F)cc(C(F)(F)F)c3)(C(F)(F)F)C2)c2ccccc12 (mixture of isomers) [Compound 60]
very good to excellent: [1] | [2] | [3]; sprayed at 250 ppm

CC(C)NC(=O)C(C)NC(=O)c1ccc(C2=NOC(c3cc(C(F)(F)F)cc(C(F)(F)F)c3)(C(F)(F)F)C2)c2ccccc12 (mixture of isomers) [Compound 83]
very good to excellent: [1] | [2] | [3]; sprayed at 50 ppm | [3]; sprayed at 250 ppm

CC(C)CNC(=O)C(C)NC(=O)c1ccc(C2=NOC(c3cc(C(F)(F)F)cc(C(F)(F)F)c3)(C(F)(F)F)C2)c2ccccc12 (mixture of isomers) [Compound 93]
very good to excellent: [1] | [2] | [3]; sprayed at 50 ppm

CCNC(=O)C(C)NC(=O)c1ccc(C2=NOC(c3cc(C(F)(F)F)cc(C(F)(F)F)c3)(C(F)(F)F)C2)c2ccccc12 (mixture of isomers) [Compound 96]
very good to excellent: [1] | [2] | [3]; sprayed at 250 ppm

CC(NC(=O)CNC(=O)c1ccc(C2=NOC(c3cc(Cl)cc(Cl)c3)(C(F)(F)F)C2)c2ccccc12)C(F)(F)F (mixture of isomers) [Compound 122]
very good to excellent: [1] | [2] | [3]; sprayed at 50 ppm | [3]; sprayed at 250 ppm

CC(NC(=O)c1ccc(C2=NOC(c3cc(Cl)cc(Cl)c3)(C(F)(F)F)C2)c2ccccc12)C(=O)NC(C)C(F)(F)F (mixture of isomers) [Compound 123]
very good to excellent: [1] | [2] | [3]; sprayed at 50 ppm | [3]; sprayed at 250 ppm

CC(NC(=O)c1ccc(C2=NOC(c3cc(C(F)(F)F)cc(C(F)(F)F)c3)(C(F)(F)F)C2)c2ccccc12)C(=O)NCC(C)(C)C (mixture of isomers) [Compound 124]
very good to excellent: [1] | [2] | [3]; sprayed at 250 ppm

C[S+]([O-])CCNC(=O)c1ccc(C2=NOC(c3cc(F)cc(C(F)(F)F)c3)(C(F)(F)F)C2)c2ccccc12 (mixture of isomers) [Compound 133]
very good to excellent: [1] | [2] | [3]; sprayed at 50 ppm | [3]; sprayed at 250 ppm

CCNC(=O)C(C)NC(=O)c1ccc(C2=NOC(c3cc(F)cc(C(F)(F)F)c3)(C(F)(F)F)C2)c2ccccc12 (mixture of isomers) [Compound 137]
very good to excellent: [1] | [2] | [3]; sprayed at 50 ppm

CNC(=O)CNC(=O)c1ccc(C2=NOC(c3cc(Cl)cc(C(F)(F)F)c3)(C(F)(F)F)C2)c2ccccc12 (stereo not shown) [Compound 116]
very good to excellent: [1] | [2]
